Laboratory results: patent publication US20240041042A1, “1-(PYRIDYL)-5-AZINYLPYRAZOLE DERIVATIVES, AND THEIR USE FOR CONTROL OF UNDESIRED PLANT GROWTH” (Bayer Aktiengesellschaft, priority 2020, published 2024)
Read-outs that look alike come from different tables or passages of the source.

Columns and labels:
Format in all cases: in vivo
[1] = system: Verconica persica (VERPE); assay: Post-emergence herbicidal action against VERPE
Protocol: (§1) Seeds of monocotyledonous and dicotyledonous weeds and crop plants are placed in sandy loam in plastic or organic planting pots, covered with soil and cultivated in a greenhouse under controlled growth conditions. 2 to 3 weeks after sowing, the test plants are treated at the one-leaf stage. The compounds of the invention, formulated in the form of wettable powders (WP) or as emulsion concentrates (EC), are then sprayed onto the green parts of the plants as aqueous suspension or emulsion with addition of 0.5% additive at a water application rate of 600 l/ha (converted). After the test plants have been kept in the greenhouse under optimum growth conditions for about 3 weeks, the activity of the preparations is rated visually in comparison to untreated controls. For example, 100% activity=the plants have died, 0% activity=like control plants.
(§2) Tables B1 to B13 below show the effects of selected compounds of the general formula (I) according to Table 1 on various harmful plants and at an application rate corresponding to 320 g/ha or lower, which were obtained by the experimental procedure mentioned above. The appendices “a”, “b” and “c” give differentiation by dosage used with otherwise the same harmful plants tested.

[2] = system: Polygonum convolvulus (POLCO); assay: Pre-emergence herbicidal action against POLCO
From the text: (§3) Seeds of monocotyledonous and dicotyledonous weed plants and crop plants are placed in plastic or organic planting pots and covered with soil. The compounds of the invention, formulated in the form of wettable powders (WP) or as emulsion concentrates (EC), are then applied to the surface of the covering soil as aqueous suspension or emulsion with addition of 0.5% additive at a water application rate equivalent to 600 l/ha. After the treatment, the pots are placed in a greenhouse and kept under good growth conditions for the trial plants. After about 3 weeks, the effect of the preparations is scored visually in comparison with untreated controls as percentages. For example, 100% activity=the plants have died, 0% activity=like control plants.
(§4) Tables A1 to A13 below show the effects of selected compounds of the general formula (I) on various harmful plants and at an application rate corresponding to 320 g/ha or lower, which were obtained by the experimental procedure mentioned above. The appendices “a”, “b” and “c” give differentiation by dosage used with otherwise the same harmful plants tested.

[3] = system: Pharbitis purpurea (PHBPU); assay: Post-emergence herbicidal action against PHBPU
Protocol: as §1, §2

[4] = system: Matricaria inodora (MATIN); assay: Pre-emergence herbicidal action against MATIN; conditions: dosage 320 g/ha
From the text: as §3, §4

Setaria viridis (SETVI) [5] = assay: Pre-emergence herbicidal action against SETVI
From the text: as §3, §4

[6] = system: Alopecurus myosuroides (ALOMY); assay: Post-emergence herbicidal action against ALOMY; conditions: visual rating about 3 weeks after treatment vs untreated controls (100% = plants have died, 0% = like control plants)
Protocol: as §1, §2

[7] = system: Echinochloa crus-galli (ECHCG); assay: Pre-emergence herbicidal action against ECHCG; conditions: dosage 320 g/ha
From the text: as §3, §4

Avena fatua (AVEFA) [8] = assay: Pre-emergence herbicidal action against AVEFA; conditions: visual scoring after about 3 weeks vs untreated controls
From the text: as §3, §4

Viola tricolor (VIOTR) [9] = assay: Post-emergence herbicidal action against VIOTR
Protocol: as §1, §2

[10] = system: Alopecurus myosuroides (ALOMY); assay: Pre-emergence herbicidal action against ALOMY; conditions: scored visually after about 3 weeks, 100% = plants have died
From the text: as §3, §4

Lolium rigidum (LOLRI) [11] = assay: Post-emergence herbicidal action against LOLRI
Protocol: as §1, §2

Viola tricolor (VIOTR) [12] = assay: Pre-emergence herbicidal action against VIOTR
From the text: as §3, §4

[13] = system: Verconica persica (VERPE); assay: Pre-emergence herbicidal action against VERPE
From the text: as §3, §4

[14] = system: Echinochloa crus-galli (ECHCG); assay: Post-emergence herbicidal action against ECHCG
Protocol: as §1, §2

[15] = system: Amaranthus retroflexus (AMARE); assay: Pre-emergence herbicidal action against AMARE; conditions: visual scoring after about 3 weeks vs untreated controls
From the text: as §3, §4

Zea mays (ZEAMX) = conditions: for Post-emergence action against ZEAMX in % (crop plant compatibility): 20 g/ha, effect in comparison to untreated controls; for Post-emergence action against ZEAMX in %: crop plant compatibility, 80 g/ha, effect vs untreated controls
Protocol: as §1
(§5) The observed effects on selected crop plants are reported here in comparison to the untreated controls (values in %). The appendices “a”, “b” and “c” give differentiation by dosage used with otherwise the same crop plants tested.

Oryza sativa (ORYSA) = conditions: crop plant compatibility
Protocol: as §1, §5

Lolium rigidum (LOLRI) [16] = assay: Pre-emergence herbicidal action against LOLRI
From the text: as §3, §4

Avena fatua (AVEFA) [17] = assay: Post-emergence herbicidal action against AVEFA; conditions: visual rating about 3 weeks after treatment
Protocol: as §1, §2

[18] = system: Pharbitis purpurea (PHBPU); assay: Pre-emergence herbicidal action against PHBPU; conditions: dosage 320 g/ha
From the text: as §3, §4

Setaria viridis (SETVI) [19] = assay: Post-emergence herbicidal action against SETVI
Protocol: as §1, §2

[20] = system: Amaranthus retroflexus (AMARE); assay: Post-emergence herbicidal action against AMARE
Protocol: as §1, §2

[21] = system: Polygonum convolvulus (POLCO); assay: Post-emergence herbicidal action against POLCO
Protocol: as §1, §2

[22] = system: Abutilon theophrasti (ABUTH); assay: Post-emergence herbicidal action against ABUTH; conditions: visual rating about 3 weeks after treatment vs untreated controls (100% = plants have died, 0% = like control plants)
Protocol: as §1, §2

[23] = 20 g/ha, effect vs untreated controls
[24] = 80 g/ha, effect in comparison to untreated controls
[25] = 80 g/ha, visual rating about 3 weeks after treatment vs untreated controls (100% = plants have died, 0% = like control plants)
[26] = 320 g/ha, effect in comparison to untreated controls
[27] = 320 g/ha, visual rating about 3 weeks after treatment

| Compound | Pre-emergence action against POLCO in % ([2]; dosage 320 g/ha) | Pre-emergence action against MATIN in % [4] | Pre-emergence action against SETVI in % (Setaria viridis (SETVI) [5]; dosage 80 g/ha) | Pre-emergence action against SETVI in % (Setaria viridis (SETVI) [5]; dosage 320 g/ha) | Post-emergence action against ALOMY in % ([6]; 80 g/ha) | Pre-emergence action against ECHCG in % [7] | Pre-emergence action against AVEFA in % (Avena fatua (AVEFA) [8]; 320 g/ha) | Pre-emergence action against ALOMY ([10]; 80 g/ha) | Pre-emergence action against ALOMY ([10]; 320 g/ha) | Pre-emergence action against VIOTR in % (Viola tricolor (VIOTR) [12]; 320 g/ha, Viola tricolor) | Pre-emergence action against VIOTR in % (Viola tricolor (VIOTR) [12]; dosage 80 g/ha) | Pre-emergence action against VERPE in % ([13]; dosage 320 g/ha) | Pre-emergence action against AMARE in % ([15]; 80 g/ha) | Pre-emergence action against AMARE in % ([15]; 320 g/ha) | Post-emergence action against ORYSA in % (Oryza sativa (ORYSA); [24]) | Pre-emergence action against LOLRI in % (Lolium rigidum (LOLRI) [16]; dosage 80 g/ha) | Pre-emergence action against LOLRI in % (Lolium rigidum (LOLRI) [16]; dosage 320 g/ha) | Post-emergence action against AVEFA in % (Avena fatua (AVEFA) [17]; 80 g/ha) | Pre-emergence action against PHBPU in % [18] | Post-emergence action against ZEAMX in % (Zea mays (ZEAMX)) | also measured |
| --- | --- | --- | --- | --- | --- | --- | --- | --- | --- | --- | --- | --- | --- | --- | --- | --- | --- | --- | --- | --- | --- |
| CCOC(=O)[C@@H](C)Oc1nn(-c2ncccc2F)c(-c2ccc(F)nc2)c1Cl [Example I-32] | 90% | 90% | 100% | 100% | 90% | 100% | 100% | 90% | 100% | 100% | 100% | 100% | 90% | 100% | 0% | 90% | 100% | 90% | 80% |  | Post-emergence action against VERPE in % ([1]; dosage 80 g/ha): 80%; Pre-emergence action against POLCO in % ([2]; dosage 80 g/ha): 90%; Post-emergence action against PHBPU in % ([3]; dosage 80 g/ha): 80%; Pre-emergence action against AVEFA in % (Avena fatua (AVEFA) [8]; 80 g/ha): 90%; Post-emergence action against VIOTR in % (Viola tricolor (VIOTR) [9]; 80 g/ha): 80%; Post-emergence action against LOLRI in % (Lolium rigidum (LOLRI) [11]; dosage 80 g/ha): 90%; Pre-emergence action against VERPE in % ([13]; dosage 80 g/ha): 80%; Post-emergence action against ECHCG in % ([14]; dosage 80 g/ha): 80%; Post-emergence action against ZEAMX in % (crop plant compatibility) (Zea mays (ZEAMX)): 20%; Post-emergence action against ORYSA in % (Oryza sativa (ORYSA); [23]): 0% |
| O=C(O)COc1nn(-c2ncccc2F)c(-c2ccc(F)nc2)c1C1CC1 [Example I-43] | 80% | 80% | 100% | 100% | 90% | 100% | 100% | 100% | 100% | 100% | 100% | 90% | 80% | 90% |  | 90% | 100% | 90% | 80% | 10% | Post-emergence action against SETVI in % (Setaria viridis (SETVI) [19]; dosage 80 g/ha): 90%; Post-emergence action against ECHCG in % ([14]; dosage 80 g/ha): 90%; Post-emergence action against ZEAMX in % (crop plant compatibility) (Zea mays (ZEAMX)): 10%; Post-emergence action against ORYSA in % (Oryza sativa (ORYSA); [23]): 10%; Post-emergence action against AMARE in % [20, 25]: 80% |
| C[C@H](NC(=O)COc1nn(-c2ccccn2)c(-c2cncc(F)c2)c1Br)C(=O)O [Example I-80] | 90% | 90% | 90% | 100% |  | 100% | 90% | 100% | 100% | 90% |  | 90% | 90% | 90% | 20% |  | 100% | 80% | 90% | 20% | Post-emergence action against VERPE in % ([1]; 320 g/ha, VERPE): 80%; Post-emergence action against PHBPU in % ([3]; dosage 80 g/ha): 80%; Post-emergence action against PHBPU in % ([3]; dosage 320 g/ha): 80%; Post-emergence action against SETVI in % (Setaria viridis (SETVI) [19]; dosage 320 g/ha): 80%; Post-emergence action against ALOMY in % ([6]; 320 g/ha): 90%; Post-emergence action against POLCO in % ([21]; dosage 80 g/ha): 80%; Post-emergence action against POLCO in % ([21]; dosage 320 g/ha): 80%; Post-emergence action against ECHCG in % ([14]; dosage 80 g/ha): 80%; Post-emergence action against ECHCG in % ([14]; dosage 320 g/ha): 80%; Post-emergence action against ORYSA in % (Oryza sativa (ORYSA); [26]): 20%; Post-emergence action against AMARE in % [20, 25]: 80%; Post-emergence action against AMARE in % [20, 27]: 80%; Post-emergence action against AVEFA in % (Avena fatua (AVEFA) [17]; 320 g/ha): 80% |
| CCOC(=O)C(C)Oc1nn(-c2ccccn2)c(-c2ccc(F)nc2)c1Br (stereo not shown) [Example I-102] | 90% |  | 90% | 100% | 90% |  | 90% | 100% | 100% | 100% | 90% | 80% | 80% | 90% | 0% | 80% | 100% | 90% | 80% | 20% | Post-emergence action against ABUTH in % ([22]; 80 g/ha): 80%; Post-emergence action against POLCO in % ([21]; dosage 80 g/ha): 90%; Post-emergence action against LOLRI in % (Lolium rigidum (LOLRI) [11]; dosage 80 g/ha): 90%; Post-emergence action against ZEAMX in % (crop plant compatibility) (Zea mays (ZEAMX)): 0%; Post-emergence action against ORYSA in % (Oryza sativa (ORYSA); [23]): 0%; Post-emergence action against AMARE in % [20, 25]: 80% |
| COC(=O)C(C)NC(=O)[C@@H](C)Oc1nn(-c2ccccn2)c(-c2ccc(F)nc2)c1Cl (stereo partly shown) [Example I-358] | 90% |  |  | 100% | 90% | 100% | 80% | 80% | 100% | 100% | 80% |  | 80% | 100% | 0% | 100% | 100% | 90% | 80% | 0% | Post-emergence action against VERPE in % ([1]; 320 g/ha, VERPE): 80%; Pre-emergence action against POLCO in % ([2]; dosage 80 g/ha): 80%; Post-emergence action against SETVI in % (Setaria viridis (SETVI) [19]; dosage 320 g/ha): 90%; Post-emergence action against ABUTH in % ([22]; 320 g/ha): 80%; Post-emergence action against ALOMY in % ([6]; 320 g/ha): 90%; Post-emergence action against POLCO in % ([21]; dosage 80 g/ha): 90%; Post-emergence action against POLCO in % ([21]; dosage 320 g/ha): 90%; Post-emergence action against VIOTR in % (Viola tricolor (VIOTR) [9]; 80 g/ha): 90%; Post-emergence action against VIOTR in % (Viola tricolor (VIOTR) [9]; 320 g/ha): 90%; Post-emergence action against LOLRI in % (Lolium rigidum (LOLRI) [11]; dosage 80 g/ha): 90%; Post-emergence action against LOLRI in % (Lolium rigidum (LOLRI) [11]; dosage 320 g/ha): 90%; Post-emergence action against ECHCG in % ([14]; dosage 320 g/ha): 90%; Post-emergence action against ORYSA in % (Oryza sativa (ORYSA); [26]): 0%; Post-emergence action against AMARE in % [20, 27]: 90%; Post-emergence action against AVEFA in % (Avena fatua (AVEFA) [17]; 320 g/ha): 90% |
